Our source for the inhibition and Activity values is ChEMBL document CHEMBL5236569, “Emodin lows NPC1L1-mediated cholesterol absorption as an uncompetitive inhibitor” (2022).

Calls of active or inactive are those of the source. No cut-off for these calls is given here.

A short description of assay [1]: Inhibition of cholesterol uptake in human HepG2 cells at 100 uM relative to control. Format: functional.
Assay [2] in a line: Inhibition of cholesterol uptake in human HepG2 cells at 75 uM relative to control. The assay is classed as functional.
Assay [3] is described as follows: Inhibition of cholesterol uptake in human HepG2 cells at 50 uM relative to control. Format: functional.
Assay [4] is described as follows: Inhibition of cholesterol uptake in human HepG2 cells at 25 uM relative to control. The assay is classed as functional.
Assay [5] in a line: Inhibition of cholesterol uptake in human HepG2 cells at 12.5 uM relative to control. Format: functional.
Assay [6] is described as follows: Inhibition of cholesterol uptake in human Caco-2 cells at 100 uM relative to control. The assay is classed as functional.
Assay [7] can be described thus: Inhibition of cholesterol uptake in human Caco-2 cells at 75 uM relative to control. Format: functional.
A short description of assay [8]: Inhibition of cholesterol uptake in human Caco-2 cells at 50 uM relative to control. Format: functional.
The nature of assay [9]: Inhibition of cholesterol uptake in human Caco-2 cells at 25 uM relative to control. The assay is classed as functional.
A short description of assay [10]: Inhibition of cholesterol uptake in human Caco-2 cells at 12.5 uM relative to control. The assay is classed as functional.
The target of assay [11] is T1, NPC1-like intracellular cholesterol transporter 1 (Homo sapiens) (UniProt Q9UHC9).
T1 sequence (whole entry): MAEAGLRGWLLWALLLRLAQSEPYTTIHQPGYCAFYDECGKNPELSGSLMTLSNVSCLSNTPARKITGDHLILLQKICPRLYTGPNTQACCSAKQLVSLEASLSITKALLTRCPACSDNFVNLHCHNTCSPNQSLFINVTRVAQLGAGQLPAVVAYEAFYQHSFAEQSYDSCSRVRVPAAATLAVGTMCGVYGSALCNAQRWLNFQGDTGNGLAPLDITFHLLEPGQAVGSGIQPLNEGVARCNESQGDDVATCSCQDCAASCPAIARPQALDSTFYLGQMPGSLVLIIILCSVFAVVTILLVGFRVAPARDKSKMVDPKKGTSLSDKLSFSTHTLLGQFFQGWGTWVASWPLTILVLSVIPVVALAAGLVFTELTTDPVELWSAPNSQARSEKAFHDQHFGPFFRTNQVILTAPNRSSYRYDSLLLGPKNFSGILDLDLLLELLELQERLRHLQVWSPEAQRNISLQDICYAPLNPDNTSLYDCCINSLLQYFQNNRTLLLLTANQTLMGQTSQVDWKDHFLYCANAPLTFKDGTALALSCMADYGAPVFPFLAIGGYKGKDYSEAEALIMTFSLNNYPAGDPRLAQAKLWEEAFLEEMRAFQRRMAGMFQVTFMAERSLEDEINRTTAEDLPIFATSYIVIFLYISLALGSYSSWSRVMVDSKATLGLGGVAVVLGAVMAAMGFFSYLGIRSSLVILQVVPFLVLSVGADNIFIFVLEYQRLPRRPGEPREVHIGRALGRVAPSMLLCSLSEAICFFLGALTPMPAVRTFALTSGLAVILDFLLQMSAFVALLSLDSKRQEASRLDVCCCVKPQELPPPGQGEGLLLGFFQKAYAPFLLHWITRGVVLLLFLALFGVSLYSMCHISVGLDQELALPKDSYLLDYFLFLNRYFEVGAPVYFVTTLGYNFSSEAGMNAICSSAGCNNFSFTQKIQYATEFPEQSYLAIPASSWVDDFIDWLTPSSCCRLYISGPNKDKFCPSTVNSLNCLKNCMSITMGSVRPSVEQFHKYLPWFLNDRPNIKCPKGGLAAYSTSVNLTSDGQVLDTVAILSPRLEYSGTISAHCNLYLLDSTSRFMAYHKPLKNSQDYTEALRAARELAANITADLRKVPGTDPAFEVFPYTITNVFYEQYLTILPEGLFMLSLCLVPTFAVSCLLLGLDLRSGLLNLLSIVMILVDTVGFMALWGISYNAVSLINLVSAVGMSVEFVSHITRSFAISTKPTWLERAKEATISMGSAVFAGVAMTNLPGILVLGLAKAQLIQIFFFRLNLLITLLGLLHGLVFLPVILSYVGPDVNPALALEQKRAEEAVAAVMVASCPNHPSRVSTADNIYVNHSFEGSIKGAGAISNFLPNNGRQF
The experiment in a line: Inhibition of NPC1L1in human HepG2 cells assessed as reduction in intracellular cholesterol content incubated for 60 mins by filipin dye based confocal microscopy analysis. Format: cell-based.

Assay [12] concerns the target T1, NPC1-like intracellular cholesterol transporter 1 (Homo sapiens). In words: Inhibition of NPC1L1in human HepG2 cells assessed as increase in intracellular cholesterol content incubated for 60 mins by filipin dye based confocal microscopy analysis. The assay is classed as cell-based.
For assay [13] the target is unchanged. The experiment in a line: […] inhibition of NPC1L1 (unknown origin) assessed as decrease in Km at upto 150 uM by Lineweaver-burk double inverse plot analysis.
The target is the same in assay [14]. The experiment in a line: […] inhibition of NPC1L1 (unknown origin) assessed as decrease in Vmax at upto 150 uM by Lineweaver-burk double inverse plot analysis.
Assay [15] concerns HepG2. In words: Effect on NPC1L1 expression in human HepG2 cells at 1 to 100 uM incubated for 24 hrs. The assay is classed as functional, cell-based. The conditions noted are these: dose 1-100 µM.

For `Cc1cc(O)c2c(c1)C(=O)c1cc(O)cc(O)c1C2=O` [EMODIN], the results for the inhibition at 100 µM in [1] and in assay [6] were 27% and 29%, respectively. Besides, the inhibition at 75 µM was determined as 31.3% in assay [2] and 28% in assay [7]. For the same compound, the inhibition at 50 µM in assay [3] worked out at 33.6%; in assay [8] it was 32.3%. The inhibition at 25 µM in [4] came out at 41.6%; in [9], 39.6%. Moreover, the inhibition at 12.5 µM in assay [5] was found to be 52.6%; in [10], 44.3%. Further, the result in [11], in [12], in assay [13], in [14] and in [15] was Active.
As for `O=C1[C@H](CC[C@H](O)c2ccc(F)cc2)[C@@H](c2ccc(O)cc2)N1c1ccc(F)cc1` [EZETIMIBE], the results for the inhibition at 100 µM in assay [1] and in assay [6] were 48.3% and 70%, respectively. Moreover, in assay [11], the result was inactive. Further, in assay [12], the outcome was Active.
